# ± gives the expanded uncertainty stated by the source.
# Key:
# [1] = xn = mol fraction of the nth substance listed; conditions: 101.32 kPa, Liquid, Vibrating tube method
# [2] = excess molar enthalpy (molar enthalpy of mixing); xn = mol fraction of the nth substance listed; conditions: 101 kPa, Liquid, Calvet calorimetry
smiles,measurement,setting,value
CCOC(C)=O [ethyl acetate] + CCCCCC,mass density,"[1]; 291.15 K, x1 = 0.0165",663.7 ± 0.82 kg/m3
same,mass density,"[1]; 291.15 K, x1 = 0.0655",671.62 ± 0.84 kg/m3
same,mass density,"[1]; 291.15 K, x1 = 0.1077",678.72 ± 0.88 kg/m3
same,mass density,"[1]; 291.15 K, x1 = 0.1823",692.02 ± 0.9 kg/m3
same,mass density,"[1]; 291.15 K, x1 = 0.1962",694.54 ± 0.9 kg/m3
same,mass density,"[1]; 291.15 K, x1 = 0.2716",709.09 ± 0.97 kg/m3
same,mass density,"[1]; 291.15 K, x1 = 0.3518",725.37 ± 1 kg/m3
same,mass density,"[1]; 291.15 K, x1 = 0.4166",739.37 ± 1.1 kg/m3
same,mass density,"[1]; 291.15 K, x1 = 0.5519",770.91 ± 1.1 kg/m3
same,mass density,"[1]; 291.15 K, x1 = 0.6225",788.69 ± 1.2 kg/m3
same,mass density,"[1]; 291.15 K, x1 = 0.6795",803.74 ± 1.3 kg/m3
same,mass density,"[1]; 291.15 K, x1 = 0.7429",821.35 ± 1.3 kg/m3
same,mass density,"[1]; 291.15 K, x1 = 0.8048",839.41 ± 1.4 kg/m3
same,mass density,"[1]; 291.15 K, x1 = 0.898",868.3 ± 1.4 kg/m3
same,mass density,"[1]; 291.15 K, x1 = 0.9604",888.98 ± 1.5 kg/m3
same,mass density,"[1]; 291.15 K, x1 = 0.9833",896.93 ± 1.6 kg/m3
same,mass density,"[1]; 291.15 K, x1 = 1",902.88 ± 0.73 kg/m3
same,mass density,"[1]; 298.15 K, x1 = 0.0704",666.2 ± 0.84 kg/m3
same,mass density,"[1]; 298.15 K, x1 = 0.127",675.7 ± 0.87 kg/m3
same,mass density,"[1]; 298.15 K, x1 = 0.193",687.4 ± 0.9 kg/m3
same,mass density,"[1]; 298.15 K, x1 = 0.2383",695.9 ± 0.93 kg/m3
same,mass density,"[1]; 298.15 K, x1 = 0.2909",706.1 ± 0.97 kg/m3
same,mass density,"[1]; 298.15 K, x1 = 0.3466",717.4 ± 1 kg/m3
same,mass density,"[1]; 298.15 K, x1 = 0.444",738.3 ± 1 kg/m3
same,mass density,"[1]; 298.15 K, x1 = 0.4935",749.5 ± 1.1 kg/m3
same,mass density,"[1]; 298.15 K, x1 = 0.5355",759.4 ± 1.1 kg/m3
same,mass density,"[1]; 298.15 K, x1 = 0.5869",772 ± 1.2 kg/m3
same,mass density,"[1]; 298.15 K, x1 = 0.6255",781.8 ± 1.2 kg/m3
same,mass density,"[1]; 298.15 K, x1 = 0.7012",801.9 ± 1.2 kg/m3
same,mass density,"[1]; 298.15 K, x1 = 0.7532",816.4 ± 1.3 kg/m3
same,mass density,"[1]; 298.15 K, x1 = 0.8292",838.8 ± 1.4 kg/m3
same,mass density,"[1]; 298.15 K, x1 = 0.8612",848.7 ± 1.4 kg/m3
same,mass density,"[1]; 298.15 K, x1 = 0.9233",868.5 ± 1.5 kg/m3
same,mass density,"[1]; 298.15 K, x1 = 0.9469",876.3 ± 1.5 kg/m3
same,mass density,"[1]; 298.15 K, x1 = 1",894.4 ± 0.72 kg/m3
same,mass density,"[1]; 318.15 K, x1 = 0.0336",641.5 ± 0.79 kg/m3
same,mass density,"[1]; 318.15 K, x1 = 0.0764",648.1 ± 0.82 kg/m3
same,mass density,"[1]; 318.15 K, x1 = 0.1448",659.3 ± 0.86 kg/m3
same,mass density,"[1]; 318.15 K, x1 = 0.2606",679.9 ± 0.93 kg/m3
same,mass density,"[1]; 318.15 K, x1 = 0.276",682.8 ± 0.93 kg/m3
same,mass density,"[1]; 318.15 K, x1 = 0.3316",693.5 ± 0.97 kg/m3
same,mass density,"[1]; 318.15 K, x1 = 0.3976",707 ± 1 kg/m3
same,mass density,"[1]; 318.15 K, x1 = 0.4495",718.1 ± 1 kg/m3
same,mass density,"[1]; 318.15 K, x1 = 0.5054",730.6 ± 1.1 kg/m3
same,mass density,"[1]; 318.15 K, x1 = 0.5551",742.2 ± 1.1 kg/m3
same,mass density,"[1]; 318.15 K, x1 = 0.6085",755.1 ± 1.2 kg/m3
same,mass density,"[1]; 318.15 K, x1 = 0.7048",779.9 ± 1.2 kg/m3
same,mass density,"[1]; 318.15 K, x1 = 0.7523",792.9 ± 1.3 kg/m3
same,mass density,"[1]; 318.15 K, x1 = 0.7984",806 ± 1.3 kg/m3
same,mass density,"[1]; 318.15 K, x1 = 0.8419",818.8 ± 1.4 kg/m3
same,mass density,"[1]; 318.15 K, x1 = 0.8854",832.2 ± 1.4 kg/m3
same,mass density,"[1]; 318.15 K, x1 = 0.9305",846.4 ± 1.5 kg/m3
same,mass density,"[1]; 318.15 K, x1 = 1",869.6 ± 0.69 kg/m3
same,mass density,"[1]; 328.15 K, x1 = 0.0433",633.2 ± 0.78 kg/m3
same,mass density,"[1]; 328.15 K, x1 = 0.0847",639.6 ± 0.82 kg/m3
same,mass density,"[1]; 328.15 K, x1 = 0.1691",653.4 ± 0.85 kg/m3
same,mass density,"[1]; 328.15 K, x1 = 0.2349",664.88 ± 0.88 kg/m3
same,mass density,"[1]; 328.15 K, x1 = 0.307",678 ± 0.92 kg/m3
same,mass density,"[1]; 328.15 K, x1 = 0.3708",690.6 ± 0.97 kg/m3
same,mass density,"[1]; 328.15 K, x1 = 0.4318",703.25 ± 1 kg/m3
same,mass density,"[1]; 328.15 K, x1 = 0.4918",716.3 ± 1.1 kg/m3
same,mass density,"[1]; 328.15 K, x1 = 0.5567",731.2 ± 1.1 kg/m3
same,mass density,"[1]; 328.15 K, x1 = 0.6075",743.4 ± 1.1 kg/m3
same,mass density,"[1]; 328.15 K, x1 = 0.6523",754.6 ± 1.2 kg/m3
same,mass density,"[1]; 328.15 K, x1 = 0.7238",773.4 ± 1.2 kg/m3
same,mass density,"[1]; 328.15 K, x1 = 0.7577",782.7 ± 1.3 kg/m3
same,mass density,"[1]; 328.15 K, x1 = 0.8221",800.9 ± 1.3 kg/m3
same,mass density,"[1]; 328.15 K, x1 = 0.8723",815.8 ± 1.4 kg/m3
same,mass density,"[1]; 328.15 K, x1 = 0.9135",828.6 ± 1.4 kg/m3
same,mass density,"[1]; 328.15 K, x1 = 0.9832",851.3 ± 1.6 kg/m3
same,mass density,"[1]; 328.15 K, x1 = 1",857.17 ± 0.68 kg/m3
same,excess molar enthalpy,"[2]; 291.15 K, x1 = 0.0535",0.282 ± 0.007 kJ/mol
same,excess molar enthalpy,"[2]; 291.15 K, x1 = 0.1148",0.581 ± 0.013 kJ/mol
same,excess molar enthalpy,"[2]; 291.15 K, x1 = 0.1974",0.901 ± 0.019 kJ/mol
same,excess molar enthalpy,"[2]; 291.15 K, x1 = 0.2736",1.15 ± 0.025 kJ/mol
same,excess molar enthalpy,"[2]; 291.15 K, x1 = 0.3368",1.29 ± 0.028 kJ/mol
same,excess molar enthalpy,"[2]; 291.15 K, x1 = 0.3855",1.38 ± 0.03 kJ/mol
same,excess molar enthalpy,"[2]; 291.15 K, x1 = 0.4401",1.44 ± 0.031 kJ/mol
same,excess molar enthalpy,"[2]; 291.15 K, x1 = 0.4918",1.46 ± 0.031 kJ/mol
same,excess molar enthalpy,"[2]; 291.15 K, x1 = 0.5333",1.44 ± 0.031 kJ/mol
same,excess molar enthalpy,"[2]; 291.15 K, x1 = 0.5714",1.43 ± 0.03 kJ/mol
same,excess molar enthalpy,"[2]; 291.15 K, x1 = 0.6212",1.38 ± 0.029 kJ/mol
same,excess molar enthalpy,"[2]; 291.15 K, x1 = 0.6753",1.29 ± 0.028 kJ/mol
same,excess molar enthalpy,"[2]; 291.15 K, x1 = 0.722",1.18 ± 0.025 kJ/mol
same,excess molar enthalpy,"[2]; 291.15 K, x1 = 0.7805",1.03 ± 0.022 kJ/mol
same,excess molar enthalpy,"[2]; 291.15 K, x1 = 0.8412",0.834 ± 0.018 kJ/mol
same,excess molar enthalpy,"[2]; 291.15 K, x1 = 0.8816",0.641 ± 0.014 kJ/mol
same,excess molar enthalpy,"[2]; 291.15 K, x1 = 0.9343",0.392 ± 0.009 kJ/mol
same,excess molar enthalpy,"[2]; 291.15 K, x1 = 0.9802",0.146 ± 0.004 kJ/mol
same,excess molar enthalpy,"[2]; 298.15 K, x1 = 0.0668",0.362 ± 0.008 kJ/mol
same,excess molar enthalpy,"[2]; 298.15 K, x1 = 0.1168",0.572 ± 0.013 kJ/mol
same,excess molar enthalpy,"[2]; 298.15 K, x1 = 0.192",0.878 ± 0.019 kJ/mol
same,excess molar enthalpy,"[2]; 298.15 K, x1 = 0.2621",1.09 ± 0.023 kJ/mol
same,excess molar enthalpy,"[2]; 298.15 K, x1 = 0.3186",1.21 ± 0.026 kJ/mol
same,excess molar enthalpy,"[2]; 298.15 K, x1 = 0.3929",1.33 ± 0.029 kJ/mol
same,excess molar enthalpy,"[2]; 298.15 K, x1 = 0.439",1.38 ± 0.029 kJ/mol
same,excess molar enthalpy,"[2]; 298.15 K, x1 = 0.495",1.36 ± 0.029 kJ/mol
same,excess molar enthalpy,"[2]; 298.15 K, x1 = 0.5309",1.36 ± 0.029 kJ/mol
same,excess molar enthalpy,"[2]; 298.15 K, x1 = 0.5767",1.32 ± 0.028 kJ/mol
same,excess molar enthalpy,"[2]; 298.15 K, x1 = 0.6196",1.27 ± 0.027 kJ/mol
same,excess molar enthalpy,"[2]; 298.15 K, x1 = 0.6757",1.2 ± 0.026 kJ/mol
same,excess molar enthalpy,"[2]; 298.15 K, x1 = 0.7368",1.06 ± 0.023 kJ/mol
same,excess molar enthalpy,"[2]; 298.15 K, x1 = 0.7954",0.899 ± 0.019 kJ/mol
same,excess molar enthalpy,"[2]; 298.15 K, x1 = 0.8424",0.71 ± 0.015 kJ/mol
same,excess molar enthalpy,"[2]; 298.15 K, x1 = 0.8998",0.49 ± 0.011 kJ/mol
same,excess molar enthalpy,"[2]; 298.15 K, x1 = 0.9521",0.253 ± 0.006 kJ/mol
same,excess molar enthalpy,"[2]; 318.15 K, x1 = 0.076",0.462 ± 0.01 kJ/mol
same,excess molar enthalpy,"[2]; 318.15 K, x1 = 0.1524",0.815 ± 0.018 kJ/mol
same,excess molar enthalpy,"[2]; 318.15 K, x1 = 0.2306",1.08 ± 0.023 kJ/mol
same,excess molar enthalpy,"[2]; 318.15 K, x1 = 0.3029",1.26 ± 0.027 kJ/mol
same,excess molar enthalpy,"[2]; 318.15 K, x1 = 0.3659",1.36 ± 0.029 kJ/mol
same,excess molar enthalpy,"[2]; 318.15 K, x1 = 0.4345",1.42 ± 0.03 kJ/mol
same,excess molar enthalpy,"[2]; 318.15 K, x1 = 0.488",1.42 ± 0.03 kJ/mol
same,excess molar enthalpy,"[2]; 318.15 K, x1 = 0.5143",1.4 ± 0.03 kJ/mol
same,excess molar enthalpy,"[2]; 318.15 K, x1 = 0.5368",1.39 ± 0.03 kJ/mol
same,excess molar enthalpy,"[2]; 318.15 K, x1 = 0.5617",1.38 ± 0.03 kJ/mol
same,excess molar enthalpy,"[2]; 318.15 K, x1 = 0.6098",1.34 ± 0.029 kJ/mol
same,excess molar enthalpy,"[2]; 318.15 K, x1 = 0.6645",1.26 ± 0.027 kJ/mol
same,excess molar enthalpy,"[2]; 318.15 K, x1 = 0.7202",1.14 ± 0.025 kJ/mol
same,excess molar enthalpy,"[2]; 318.15 K, x1 = 0.7788",0.984 ± 0.021 kJ/mol
same,excess molar enthalpy,"[2]; 318.15 K, x1 = 0.8406",0.768 ± 0.017 kJ/mol
same,excess molar enthalpy,"[2]; 318.15 K, x1 = 0.9004",0.523 ± 0.011 kJ/mol
same,excess molar enthalpy,"[2]; 318.15 K, x1 = 0.9547",0.267 ± 0.006 kJ/mol

# Reference: the NIST ThermoML archive (doi:10.1021/je100832h)
